The target in one test is human Gal-1 (hGal-1). Put plainly: Competitive binding assay: binding of biotinylated hGal-1 to microplate-adsorbed asialofetuin (ASF). To be noted: Activities on hGal-1; mean values of several measurements. An outline of the steps: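 Spectrophotometric readout (streptavidin-peroxidase, ABTS) of biotinylated galectin retained on ASF-coated wells. Biotinylated hGal-1 or hGal-3, 300-1000 ng/mL, co-incubated with test compound 3 h at 4° C, then washed. Mean IC50 from repeat runs.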

The target of another test is human Gal-3 (hGal-3) (Homo sapiens (Human), UniProt P17931). In words: Competitive binding assay: binding of biotinylated hGal-3 to microplate-adsorbed asialofetuin (ASF). To be noted: Activity on hGal-3; mean values of several measurements. A digest of the protocol: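 Compounds in DMSO dilution series competed with 300-1000 ng/mL biotinylated hGal-3 for asialofetuin adsorbed on the plate (3 h, 4° C). Streptavidin-peroxidase at 80 ng/mL (1 h, 4° C) with ABTS gave a spectrophotometric read-out, and IC50 was reported as the mean of repeat runs.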
Sequence of human Gal-3 (hGal-3) (P17931 whole entry): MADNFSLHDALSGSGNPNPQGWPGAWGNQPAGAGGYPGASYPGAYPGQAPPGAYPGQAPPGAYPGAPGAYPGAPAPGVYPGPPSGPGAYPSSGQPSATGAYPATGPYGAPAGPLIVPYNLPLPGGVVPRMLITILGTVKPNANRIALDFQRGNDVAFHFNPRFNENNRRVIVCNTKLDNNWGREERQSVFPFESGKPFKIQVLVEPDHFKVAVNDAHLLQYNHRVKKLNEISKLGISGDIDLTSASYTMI

Sequence of human Gal-1 (hGal-1) (P09382 2-135 limits assumed): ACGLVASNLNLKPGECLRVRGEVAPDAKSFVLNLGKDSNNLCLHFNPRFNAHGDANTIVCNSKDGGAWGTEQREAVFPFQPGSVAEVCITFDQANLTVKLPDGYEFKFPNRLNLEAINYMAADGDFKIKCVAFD

Broadly, the IC50 is the midpoint of a concentration-inhibition curve. Read a low IC50 as greater potency in that assay. As for `CCCC(=O)N1CCC(c2cc(C[C@H]3O[C@H](CO)[C@H](O)[C@H](n4cc(-c5cc(F)c(F)c(F)c5)nn4)[C@H]3OC)no2)CC1` [Example 3.35, 1-(4-(3-(((2R,3R,4S,5R,6R)-5-hydroxy-6-(hydroxymethyl)-3-methoxy-4-(4-(3,4,5-trifluorophenyl)-1H-1,2,3-triazol-1-yl)tetrahydro-2H-pyran-2-yl)methyl)isoxazol-5-yl)piperidin-1-yl)butan-1-one], the IC50 at human Gal-1 (hGal-1) is 930 nM; at human Gal-3 (hGal-3) it was 48 nM.

For the compound `CCNC(=O)N1CCC(c2cc(C[C@H]3O[C@H](CO)[C@H](O)[C@H](n4cc(-c5cc(F)c(F)c(F)c5)nn4)[C@H]3OC)no2)CC1` [Example 3.37, N-ethyl-4-(3-(((2R,3R,4S,5R,6R)-5-hydroxy-6-(hydroxymethyl)-3-methoxy-4-(4-(3,4,5-trifluorophenyl)-1H-1,2,3-triazol-1-yl)tetrahydro-2H-pyran-2-yl)methyl)isoxazol-5-yl)piperidine-1-carboxamide], the IC50 at human Gal-1 (hGal-1) is 1090 nM; at human Gal-3 (hGal-3), 97 nM.

Take `CO[C@@H]1[C@@H](n2cc(-c3cc(F)c(F)c(F)c3)nn2)[C@@H](O)[C@@H](CO)O[C@@H]1Cc1cc(C2CCN(C(=O)NC(C)C)CC2)on1` [Example 3.38, 4-(3-(((2R,3R,4S,5R,6R)-5-hydroxy-6-(hydroxymethyl)-3-methoxy-4-(4-(3,4,5-trifluorophenyl)-1H-1,2,3-triazol-1-yl)tetrahydro-2H-pyran-2-yl)methyl)isoxazol-5-yl)-N-isopropylpiperidine-1-carboxamide]: the 50% inhibitory concentration (IC50) was 450 nM at human Gal-1 (hGal-1) and 43 nM on human Gal-3 (hGal-3).

Consider `CO[C@@H]1[C@@H](n2cc(-c3cc(F)c(F)c(F)c3)nn2)[C@@H](O)[C@@H](CO)O[C@@H]1Cc1cc(C2CCN(C)CC2)on1` [Example 3.39, (2R,3R,4S,5R,6R)-2-(hydroxymethyl)-5-methoxy-6-((5-(1-methylpiperidin-4-yl)isoxazol-3-yl)methyl)-4-(4-(3,4,5-trifluorophenyl)-1H-1,2,3-triazol-1-yl)tetrahydro-2H-pyran-3-ol], for which the IC50 on human Gal-1 (hGal-1) came to 5090 nM; on human Gal-3 (hGal-3), 260 nM.

As for `CO[C@@H]1[C@@H](n2cc(-c3cc(F)c(F)c(F)c3)nn2)[C@@H](O)[C@@H](CO)O[C@@H]1Cc1cc(C2CCN(CC(C)C)CC2)on1` [Example 3.41, (2R,3R,4S,5R,6R)-2-(hydroxymethyl)-6-((5-(1-isobutylpiperidin-4-yl)isoxazol-3-yl)methyl)-5-methoxy-4-(4-(3,4,5-trifluorophenyl)-1H-1,2,3-triazol-1-yl)tetrahydro-2H-pyran-3-ol], the IC50 is 2960 nM on human Gal-1 (hGal-1) and 230 nM at human Gal-3 (hGal-3).

With `CO[C@@H]1[C@@H](n2cc(-c3cc(F)c(F)c(F)c3)nn2)[C@@H](O)[C@@H](CO)O[C@@H]1Cc1cc(C2CCN(CCC(C)(C)C)CC2)on1` [Example 3.42, (2R,3R,4S,5R,6R)-6-((5-(1-(3,3-dimethylbutyl)piperidin-4-yl)isoxazol-3-yl)methyl)-2-(hydroxymethyl)-5-methoxy-4-(4-(3,4,5-trifluorophenyl)-1H-1,2,3-triazol-1-yl)tetrahydro-2H-pyran-3-ol], the values for the IC50 at human Gal-1 (hGal-1) and on human Gal-3 (hGal-3) were 5900 nM and 140 nM, respectively.

Turning to `CO[C@@H]1[C@@H](n2cc(-c3cc(F)c(F)c(F)c3)nn2)[C@@H](O)[C@@H](CO)O[C@@H]1Cc1cc(C2CCN(CC3CC3)CC2)on1` [Example 3.43, (2R,3R,4S,5R,6R)-6-((5-(1-(cyclopropylmethyl)piperidin-4-yl)isoxazol-3-yl)methyl)-2-(hydroxymethyl)-5-methoxy-4-(4-(3,4,5-trifluorophenyl)-1H-1,2,3-triazol-1-yl)tetrahydro-2H-pyran-3-ol], the IC50 was found to be 2830 nM on human Gal-1 (hGal-1) and 130 nM at human Gal-3 (hGal-3).

For `CO[C@@H]1[C@@H](n2cc(-c3cc(F)c(F)c(F)c3)nn2)[C@@H](O)[C@@H](CO)O[C@@H]1Cc1cc(C2CCN(CC3COC3)CC2)on1` [Example 3.44, (2R,3R,4S,5R,6R)-2-(hydroxymethyl)-5-methoxy-6-((5-(1-(oxetan-3-ylmethyl)piperidin-4-yl)isoxazol-3-yl)methyl)-4-(4-(3,4,5-trifluorophenyl)-1H-1,2,3-triazol-1-yl)tetrahydro-2H-pyran-3-ol], the IC50 is 5320 nM on human Gal-1 (hGal-1) and 560 nM at human Gal-3 (hGal-3).

Take `CO[C@@H]1[C@@H](n2cc(-c3cc(F)c(F)c(F)c3)nn2)[C@@H](O)[C@@H](CO)O[C@@H]1Cc1cc(C2CCN(S(C)(=O)=O)CC2)on1` [Example 3.45, (2R,3R,4S,5R,6R)-2-(hydroxymethyl)-5-methoxy-6-((5-(1-(methylsulfonyl)piperidin-4-yl)isoxazol-3-yl)methyl)-4-(4-(3,4,5-trifluorophenyl)-1H-1,2,3-triazol-1-yl)tetrahydro-2H-pyran-3-ol]: the results for the IC50 at human Gal-1 (hGal-1) and on human Gal-3 (hGal-3) were 490 nM and 37 nM, respectively.

For `CCCS(=O)(=O)N1CCC(c2cc(C[C@H]3O[C@H](CO)[C@H](O)[C@H](n4cc(-c5cc(F)c(F)c(F)c5)nn4)[C@H]3OC)no2)CC1` [Example 3.46, (2R,3R,4S,5R,6R)-2-(hydroxymethyl)-5-methoxy-6-((5-(1-(propylsulfonyl)piperidin-4-yl)isoxazol-3-yl)methyl)-4-(4-(3,4,5-trifluorophenyl)-1H-1,2,3-triazol-1-yl)tetrahydro-2H-pyran-3-ol], the half-inhibitory concentration (IC50) at human Gal-1 (hGal-1) stood at 580 nM; at human Gal-3 (hGal-3), 44 nM.

For the compound `CO[C@@H]1[C@@H](n2cc(-c3cc(F)c(F)c(F)c3)nn2)[C@@H](O)[C@@H](CO)O[C@@H]1Cc1cc(C2CCN(S(=O)(=O)C(C)C)CC2)on1` [Example 3.47, (2R,3R,4S,5R,6R)-2-(hydroxymethyl)-6-((5-(1-(isopropylsulfonyl)piperidin-4-yl)isoxazol-3-yl)methyl)-5-methoxy-4-(4-(3,4,5-trifluorophenyl)-1H-1,2,3-triazol-1-yl)tetrahydro-2H-pyran-3-ol], the IC50 on human Gal-1 (hGal-1) is 760 nM; on human Gal-3 (hGal-3), 50 nM.

In the case of `CO[C@@H]1[C@@H](n2cc(-c3cc(F)c(F)c(F)c3)nn2)[C@@H](O)[C@@H](CO)O[C@@H]1Cc1cc(C2CCN(C(=O)CC(C)C)CC2)on1` [Example 3.48, 1-(4-(3-(((2R,3R,4S,5R,6R)-5-hydroxy-6-(hydroxymethyl)-3-methoxy-4-(4-(3,4,5-trifluorophenyl)-1H-1,2,3-triazol-1-yl)tetrahydro-2H-pyran-2-yl)methyl)isoxazol-5-yl)piperidin-1-yl)-3-methylbutan-1-one], the IC50 is 470 nM at human Gal-1 (hGal-1) and 41 nM at human Gal-3 (hGal-3).

Consider `CO[C@@H]1[C@@H](n2cc(-c3cc(F)c(F)c(F)c3)nn2)[C@@H](O)[C@@H](CO)O[C@@H]1Cc1cc(C2CCN(C(=O)C3CCCC3)CC2)on1` [Example 3.49, cyclopentyl(4-(3-(((2R,3R,4S,5R,6R)-5-hydroxy-6-(hydroxymethyl)-3-methoxy-4-(4-(3,4,5-trifluorophenyl)-1H-1,2,3-triazol-1-yl)tetrahydro-2H-pyran-2-yl)methyl)isoxazol-5-yl)piperidin-1-yl)methanone], for which the IC50 on human Gal-1 (hGal-1) was determined as 530 nM; on human Gal-3 (hGal-3), 57 nM.

`CO[C@@H]1[C@@H](n2cc(-c3cc(F)c(F)c(F)c3)nn2)[C@@H](O)[C@@H](CO)O[C@@H]1Cc1cc(C2CCN(C(=O)C3CCC3)CC2)on1` [Example 3.50, cyclobutyl(4-(3-(((2R,3R,4S,5R,6R)-5-hydroxy-6-(hydroxymethyl)-3-methoxy-4-(4-(3,4,5-trifluorophenyl)-1H-1,2,3-triazol-1-yl)tetrahydro-2H-pyran-2-yl)methyl)isoxazol-5-yl)piperidin-1-yl)methanone]: the IC50 on human Gal-1 (hGal-1) amounted to 590 nM; at human Gal-3 (hGal-3), 45 nM.

On to `CO[C@@H]1[C@@H](n2cc(-c3cc(F)c(F)c(F)c3)nn2)[C@@H](O)[C@@H](CO)O[C@@H]1Cc1cc(C2CCN(C(=O)NC(C)(C)C)CC2)on1` [Example 3.52, N-(tert-butyl)-4-(3-(((2R,3R,4S,5R,6R)-5-hydroxy-6-(hydroxymethyl)-3-methoxy-4-(4-(3,4,5-trifluorophenyl)-1H-1,2,3-triazol-1-yl)tetrahydro-2H-pyran-2-yl)methyl)isoxazol-5-yl)piperidine-1-carboxamide], for which the IC50 at human Gal-1 (hGal-1) stood at 230 nM; at human Gal-3 (hGal-3) it was 31 nM.

`CO[C@@H]1[C@@H](n2cc(-c3cc(F)c(F)c(F)c3)nn2)[C@@H](O)[C@@H](CO)O[C@@H]1Cc1cc(C2CCN(C(=O)[C@@H](N)C(C)C)CC2)on1` [Example 3.54, (S)-2-amino-1-(4-(3-(((2R,3R,4S,5R,6R)-5-hydroxy-6-(hydroxymethyl)-3-methoxy-4-(4-(3,4,5-trifluorophenyl)-1H-1,2,3-triazol-1-yl)tetrahydro-2H-pyran-2-yl)methyl)isoxazol-5-yl)piperidin-1-yl)-3-methylbutan-1-one]: the concentration for half-maximal inhibition (IC50) worked out at 1510 nM at human Gal-1 (hGal-1) and 440 nM at human Gal-3 (hGal-3).

For `CO[C@@H]1[C@@H](n2cc(-c3cc(F)c(F)c(F)c3)nn2)[C@@H](O)[C@@H](CO)O[C@@H]1Cc1cc(C2CCN(S(=O)(=O)N(C)C)CC2)on1` [Example 3.58, 4-(3-(((2R,3R,4S,5R,6R)-5-hydroxy-6-(hydroxymethyl)-3-methoxy-4-(4-(3,4,5-trifluorophenyl)-1H-1,2,3-triazol-1-yl)tetrahydro-2H-pyran-2-yl)methyl)isoxazol-5-yl)-N,N-dimethylpiperidine-1-sulfonamide], the IC50 on human Gal-1 (hGal-1) is 1870 nM; on human Gal-3 (hGal-3), 61 nM.

With `CO[C@@H]1[C@@H](n2cc(-c3cc(F)c(F)c(F)c3)nn2)[C@@H](O)[C@@H](CO)O[C@@H]1Cc1cc(C2CCN(C(=O)NC3CC3)CC2)on1` [Example 3.59, N-cyclopropyl-4-(3-(((2R,3R,4S,5R,6R)-5-hydroxy-6-(hydroxymethyl)-3-methoxy-4-(4-(3,4,5-trifluorophenyl)-1H-1,2,3-triazol-1-yl)tetrahydro-2H-pyran-2-yl)methyl)isoxazol-5-yl)piperidine-1-carboxamide], the IC50 stood at 980 nM at human Gal-1 (hGal-1) and 42 nM at human Gal-3 (hGal-3).

These data come from US12319672B2, “Alpha-D-galactopyranoside derivatives” (Idorsia Pharmaceuticals Ltd, priority 2019, dated 2025).
